This note sets out measurements from ChEMBL document CHEMBL4219148, “Discovery of a highly potent orally bioavailable imidazo-[1, 2-a]pyrazine Aurora inhibitor” (Bioorg Med Chem Lett, 2018).

Converted amounts (≈) assume the structure as drawn.

Series [1] can be described thus: AUC (0 to 48 hrs) in rat at 3 mg/kg, po. It counts as ADME, organism-based. Also on record: dose 3 mg/kg, time < 48 hr, route oral. The settings on record: in vivo.
The target of series [2] is Cytochrome P450 2C19 (Homo sapiens, UniProt P33261). Description: Inhibition of CYP2C19 in human liver microsomes. It counts as ADME.
Series [3] in a line: Half life in rat at 1 mg/kg, iv. It is filed as ADME, organism-based. The settings on record: in vivo.
A short description of series [4]: Half life in mouse at 3 mg/kg, iv. It counts as ADME, organism-based. The settings on record: in vivo.
The nature of series [5]: AUC (0 to 24 hrs) in mouse at 50 mg/kg, po. It counts as ADME, organism-based. Also on record: time < 24 hr, dose 50 mg/kg, route oral. The settings on record: in vivo.
A short description of series [6]: Volume of distribution in dog at 1 mg/kg, iv. It counts as ADME, organism-based, Canis lupus familiaris. To be noted: in vivo.
Series [7] can be described thus: AUC (0 to 48 hrs) in rat at 1 mg/kg, iv. It counts as ADME, organism-based. Also on record: time < 48 hr, dose 1 mg/kg, route intravenous. The settings on record: in vivo.
Series [8] is described as follows: Protein binding in mouse plasma. It is filed as ADME, cell-free. The settings on record: read-out: PPB (converted).
Series [9] can be described thus: Clearance in monkey at 1 mg/kg, iv. It counts as ADME, organism-based, Macaca mulatta. To be noted: rhesus monkey, in vivo.
Series [10] can be described thus: Oral bioavailability in monkey at 3 mg/kg. It is filed as ADME, organism-based, Macaca mulatta. The settings on record: rhesus monkey, in vivo.
Series [11] concerns the target Cytochrome P450 3A4 (Homo sapiens, UniProt P08684). Description: Inhibition of CYP3A4 in human liver microsomes. It is filed as ADME.
The nature of series [12]: AUC (0 to 6 hrs) in rat at 10 mg/kg, po. It counts as ADME, organism-based. More on the design: time < 6 hr, dose 10 mg/kg, route oral. The settings on record: in vivo.
Series [13] is described as follows: Oral bioavailability in rat at 3 mg/kg. It is filed as ADME, organism-based. The settings on record: in vivo.
Series [14] can be described thus: AUC (0 to 48 hrs) in dog at 1 mg/kg, iv. Also on record: dose 1 mg/kg, time < 48 hr, route intravenous. It counts as ADME, organism-based, Canis lupus familiaris. The settings on record: in vivo.
Series [15] is described as follows: Volume of distribution in monkey at 1 mg/kg, iv. The settings on record: rhesus monkey, in vivo. It is filed as ADME, organism-based, Macaca mulatta.
Series [16] in a line: AUC (0 to 24 hrs) in mouse at 3 mg/kg, iv. It counts as ADME, organism-based. Also on record: time < 24 hr, dose 3 mg/kg, route intravenous. To be noted: in vivo.
Series [17] in a line: Kinetic solubility of the compound in sodium phosphate buffer/2% DMSO at pH 7.4 by static light scattering method. It is filed as physicochemical. To be noted: read-out: Kinetic_solubility.
Series [18] deals with A2780. Description: Antitumor activity against human A2780 cells xenografted in nu/nu mouse assessed as tumor growth inhibition at 300 mg/kg, po bid. It counts as functional. To be noted: read-out: TGI.
A short description of series [19]: Clearance in mouse at 3 mg/kg, iv. It counts as ADME, organism-based. To be noted: in vivo.
Series [20] has as its target Cytochrome P450 2C9 (Homo sapiens, UniProt P11712). The series can be described thus: Inhibition of CYP2C9 in human liver microsomes. It is filed as ADME.
Series [21] is described as follows: Volume of distribution in rat at 1 mg/kg, iv. It counts as ADME, organism-based. The settings on record: in vivo.
Series [22] deals with Serine/threonine-protein kinase Nek2 (Homo sapiens, UniProt P51955). Description: Inhibition of NEK2 (unknown origin).
Series [23] is described as follows: Protein binding in rat plasma. It is filed as ADME, cell-free. To be noted: read-out: PPB (converted).
The target of series [24] is T1, Aurora kinase A (Homo sapiens, UniProt O14965).
T1 sequence (O14965 whole entry): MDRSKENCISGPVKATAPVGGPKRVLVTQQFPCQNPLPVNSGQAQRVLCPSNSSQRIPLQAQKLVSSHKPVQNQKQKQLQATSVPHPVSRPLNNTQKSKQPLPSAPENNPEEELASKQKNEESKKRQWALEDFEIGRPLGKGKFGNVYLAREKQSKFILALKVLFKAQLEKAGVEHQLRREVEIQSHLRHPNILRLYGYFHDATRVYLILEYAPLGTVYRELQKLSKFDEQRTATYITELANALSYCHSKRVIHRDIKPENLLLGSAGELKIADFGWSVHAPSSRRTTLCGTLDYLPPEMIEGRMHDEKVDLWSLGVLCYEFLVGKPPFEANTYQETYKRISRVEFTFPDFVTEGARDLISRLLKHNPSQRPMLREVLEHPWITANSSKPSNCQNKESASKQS
The series can be described thus: Binding affinity to Aurora A (unknown origin) after 45 mins by fluorescence-based thermal stability shift assay.

A short description of series [25]: Clearance in rat at 1 mg/kg, iv. The settings on record: in vivo. It counts as ADME, organism-based.
Series [26] addresses Testis-specific serine/threonine-protein kinase 2 (Homo sapiens, UniProt Q96PF2). The series can be described thus: Inhibition of TSSK2 (unknown origin).
The subject of series [27] is Mus musculus. Description: Toxicity in nu/nu mouse xenografted with human A2780 cells assessed as body weight loss at 25 mg/kg, po qd after 3 days. It counts as organism-based. The settings on record: in vivo, 72 h.
The nature of series [28]: Half life in rat at 10 mg/kg, iv. It is filed as ADME, organism-based. To be noted: in vivo.
The nature of series [29]: AUC (0 to 48 hrs) in monkey at 10 mg/kg, po. It counts as ADME, organism-based, Macaca mulatta. More on the design: time < 48 hr, dose 10 mg/kg, route oral. The settings on record: rhesus monkey, in vivo.
A short description of series [30]: Clearance in rat at 10 mg/kg, iv. It counts as ADME, organism-based. To be noted: in vivo.
A short description of series [31]: Equilibrium solubility of the compound in citrate buffer at pH 5.3 by HPLC method. It is filed as physicochemical.
The test system of series [32] is Mus musculus. Description: Toxicity in nu/nu mouse xenografted with human A2780 cells assessed as death at 10 to 25 mg/kg, po after 3 days. To be noted: in vivo, 72 h. It counts as organism-based.
Series [33] is described as follows: Oral bioavailability in rat at 30 mg/kg. The settings on record: in vivo. It counts as ADME, organism-based.
For series [34], the target named is Interleukin-1 receptor-associated kinase 4 (Homo sapiens, UniProt Q9NWZ3). Description: Inhibition of IRAK4 (unknown origin).
The nature of series [35]: Oral bioavailability in monkey at 10 mg/kg. It counts as ADME, organism-based, Macaca mulatta. To be noted: rhesus monkey, in vivo.
The test system of series [36] is A2780. The series can be described thus: Antitumor activity against human A2780 cells xenografted in nu/nu mouse assessed as tumor growth inhibition at 10 mg/kg, ip bid for 3 days. To be noted: 72 h, read-out: TGI. It is filed as functional.
Series [37] can be described thus: Intrinsic clearance in cryopreserved dog hepatocytes assessed per million cells. The settings on record: read-out: CLH. It is filed as ADME, cell-based, Canis lupus familiaris, Hepatocyte.
The subject of series [38] is HCT-116. Description: Induction of endoreduplication in human HCT116 cells assessed as accumulation of >=4 N DNA preincubated for 24 hrs followed by compound washout by FACS analysis. It is filed as functional.
In series [39] the test system is A2780. The series can be described thus: Antitumor activity against human A2780 cells xenografted in nu/nu mouse assessed as tumor growth inhibition at 10 mg/kg, po bid for 3 days. It counts as functional. To be noted: 72 h, read-out: TGI.
Series [40] relates to Rattus norvegicus. Description: AUC (0 to 24 hrs) in rat at 30 mg/kg, po. It is filed as ADME, organism-based. Also on record: time < 24 hr, dose 30 mg/kg, route oral. The settings on record: in vivo, 24 h.
The target in series [41] is Ribosomal protein S6 kinase. Description: Inhibition of S6K (unknown origin). It is filed as protein assay, Homo sapiens.
The nature of series [42]: Intrinsic clearance in cryopreserved human hepatocytes assessed per million cells. It is filed as ADME, cell-based, Hepatocyte. The settings on record: read-out: CLH.
Series [43] is described as follows: Volume of distribution in rat at 10 mg/kg, iv. It is filed as ADME, organism-based. The settings on record: in vivo.
Series [44] relates to Mus musculus. The series can be described thus: Toxicity in nu/nu mouse xenografted with human A2780 cells assessed as body weight loss at 10 mg/kg, po bid after 3 days. It is filed as organism-based. The settings on record: in vivo, 72 h.
Series [45] has as its system A2780. The series can be described thus: Antitumor activity against human A2780 cells xenografted in nu/nu mouse assessed as tumor growth inhibition at 25 mg/kg, po qd for 3 days. To be noted: 72 h, read-out: TGI. It is filed as functional.
Series [46] in a line: Intrinsic clearance in cryopreserved monkey hepatocytes assessed per million cells. It is filed as ADME, cell-based, Macaca mulatta, Hepatocyte. The settings on record: rhesus monkey, read-out: CLH.
Series [47] can be described thus: AUC (0 to 24 hrs) in rat at 10 mg/kg, iv. It is filed as ADME, organism-based. More on the design: time < 24 hr, dose 10 mg/kg, route intravenous. The settings on record: in vivo.
The nature of series [48]: Intrinsic clearance in cryopreserved rat hepatocytes assessed per million cells. It counts as ADME, cell-based, Hepatocyte. The settings on record: read-out: CLH.

Chain of Testis-specific serine/threonine-protein kinase 2 (Q96PF2 whole entry): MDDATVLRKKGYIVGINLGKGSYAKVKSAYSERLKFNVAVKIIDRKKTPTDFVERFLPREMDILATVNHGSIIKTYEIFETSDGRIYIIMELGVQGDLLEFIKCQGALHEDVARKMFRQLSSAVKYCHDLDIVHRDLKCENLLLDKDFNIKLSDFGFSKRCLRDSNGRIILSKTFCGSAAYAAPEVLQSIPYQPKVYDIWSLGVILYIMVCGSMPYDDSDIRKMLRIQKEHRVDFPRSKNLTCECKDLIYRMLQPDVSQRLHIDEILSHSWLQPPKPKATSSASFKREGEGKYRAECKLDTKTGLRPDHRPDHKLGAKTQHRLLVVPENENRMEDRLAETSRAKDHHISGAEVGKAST
Chain of Cytochrome P450 3A4 (P08684 whole entry): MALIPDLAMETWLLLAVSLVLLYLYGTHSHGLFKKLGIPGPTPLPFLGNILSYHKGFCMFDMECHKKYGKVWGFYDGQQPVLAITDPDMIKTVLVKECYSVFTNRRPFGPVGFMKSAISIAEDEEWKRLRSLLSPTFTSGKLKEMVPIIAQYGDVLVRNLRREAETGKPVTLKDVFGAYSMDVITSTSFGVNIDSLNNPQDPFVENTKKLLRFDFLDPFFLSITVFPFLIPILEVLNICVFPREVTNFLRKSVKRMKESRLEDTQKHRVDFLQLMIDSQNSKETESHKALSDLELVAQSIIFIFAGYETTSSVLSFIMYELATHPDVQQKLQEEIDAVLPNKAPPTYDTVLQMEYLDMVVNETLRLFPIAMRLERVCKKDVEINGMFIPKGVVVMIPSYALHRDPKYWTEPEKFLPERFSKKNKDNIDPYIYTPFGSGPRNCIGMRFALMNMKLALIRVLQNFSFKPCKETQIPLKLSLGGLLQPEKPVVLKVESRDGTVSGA
Chain of Serine/threonine-protein kinase Nek2 (P51955 whole entry): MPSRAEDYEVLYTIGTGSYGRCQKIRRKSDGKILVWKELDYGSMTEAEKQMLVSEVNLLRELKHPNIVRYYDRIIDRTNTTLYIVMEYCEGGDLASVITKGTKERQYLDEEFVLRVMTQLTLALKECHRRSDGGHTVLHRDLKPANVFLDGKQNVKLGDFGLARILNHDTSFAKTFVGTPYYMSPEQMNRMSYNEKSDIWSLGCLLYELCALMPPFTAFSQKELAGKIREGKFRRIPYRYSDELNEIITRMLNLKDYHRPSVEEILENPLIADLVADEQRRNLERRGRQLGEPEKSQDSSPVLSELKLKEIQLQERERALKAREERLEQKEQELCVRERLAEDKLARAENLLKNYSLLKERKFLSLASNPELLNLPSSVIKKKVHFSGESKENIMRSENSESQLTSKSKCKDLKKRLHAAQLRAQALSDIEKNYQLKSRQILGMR
Chain of Cytochrome P450 2C9 (P11712 whole entry): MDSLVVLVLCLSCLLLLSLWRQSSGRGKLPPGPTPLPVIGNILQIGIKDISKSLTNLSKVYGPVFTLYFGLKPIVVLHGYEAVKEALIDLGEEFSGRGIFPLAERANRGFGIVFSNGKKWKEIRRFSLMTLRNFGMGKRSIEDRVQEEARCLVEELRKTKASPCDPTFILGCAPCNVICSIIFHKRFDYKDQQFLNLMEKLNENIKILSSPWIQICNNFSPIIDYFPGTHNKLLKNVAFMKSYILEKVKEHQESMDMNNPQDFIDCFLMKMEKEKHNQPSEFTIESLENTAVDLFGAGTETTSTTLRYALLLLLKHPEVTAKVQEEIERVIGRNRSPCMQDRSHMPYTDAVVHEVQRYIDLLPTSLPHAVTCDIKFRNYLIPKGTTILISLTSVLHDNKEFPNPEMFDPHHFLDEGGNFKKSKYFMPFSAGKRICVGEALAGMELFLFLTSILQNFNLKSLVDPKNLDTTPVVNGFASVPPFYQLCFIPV
Chain of Cytochrome P450 2C19 (P33261 whole entry): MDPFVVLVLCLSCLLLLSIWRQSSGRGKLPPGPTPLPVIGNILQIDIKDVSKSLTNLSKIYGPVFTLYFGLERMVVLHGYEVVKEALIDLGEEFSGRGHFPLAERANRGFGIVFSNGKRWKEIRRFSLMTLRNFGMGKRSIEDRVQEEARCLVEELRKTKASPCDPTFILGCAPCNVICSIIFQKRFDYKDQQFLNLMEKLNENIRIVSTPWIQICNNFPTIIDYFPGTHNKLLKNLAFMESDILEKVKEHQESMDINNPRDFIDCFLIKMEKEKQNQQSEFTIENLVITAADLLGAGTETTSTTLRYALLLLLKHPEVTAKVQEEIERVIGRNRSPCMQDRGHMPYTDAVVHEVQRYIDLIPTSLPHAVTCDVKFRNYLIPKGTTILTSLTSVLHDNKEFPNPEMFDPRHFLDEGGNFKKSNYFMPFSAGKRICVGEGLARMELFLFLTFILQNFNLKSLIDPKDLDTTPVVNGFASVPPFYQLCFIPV
Chain of Interleukin-1 receptor-associated kinase 4 (Q9NWZ3 whole entry): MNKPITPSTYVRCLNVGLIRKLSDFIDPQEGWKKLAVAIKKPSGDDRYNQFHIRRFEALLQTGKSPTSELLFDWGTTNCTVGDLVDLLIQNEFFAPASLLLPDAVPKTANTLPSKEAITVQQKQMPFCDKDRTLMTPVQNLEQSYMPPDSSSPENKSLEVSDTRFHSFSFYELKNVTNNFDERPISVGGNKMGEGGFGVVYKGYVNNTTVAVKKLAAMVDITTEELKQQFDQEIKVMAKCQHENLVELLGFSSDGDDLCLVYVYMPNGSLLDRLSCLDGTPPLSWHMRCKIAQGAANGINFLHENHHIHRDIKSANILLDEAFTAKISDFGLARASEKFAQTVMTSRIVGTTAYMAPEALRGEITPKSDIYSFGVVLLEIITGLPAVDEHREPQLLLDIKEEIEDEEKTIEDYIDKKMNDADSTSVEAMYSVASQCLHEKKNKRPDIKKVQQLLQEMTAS

For `Cc1cn2c(-c3cn[nH]c3)cnc2c(Nc2cc(Cc3ccccn3)ns2)n1`, the AUC(0-t) at 48 h in series [1] came to 0.8 µM·h; in series [7], 2.8 µM·h; in series [14], 9.2 µM·h. For the same compound, the IC50 was over 20000 nM in series [2]; over 20000 nM in series [11]; over 20000 nM in series [20]; over 500 nM in [22]; over 500 nM in [26]. Moreover, the half-life in series [3] is 0.7 h; in series [4] it was 0.2 h. Moreover, the AUC(0-t) at 24 h is 14.1 µM·h in [5] and 1.1 µM·h in series [16]. Moreover, the Vd in series [6] turned out to be 0.2 L/kg; in [15] it was 1 L/kg; in series [21], 0.7 L/kg. The figures for the fraction unbound in series [8] and in series [23] were 0.028 and 0.004, respectively. Further, the clearance turned out to be 28 mL/min/kg in [9], 118 mL/min/kg in series [19] and 15 mL/min/kg in [25]. In addition, the bioavailability was determined as 0% in series [10] and 10% in series [13]. Moreover, in [12], the AUC(0-t) at 6 h was determined as 17.7 µM·h. The solubility kinetic in series [17] was 20 µM (≈ 7.77 µg/mL). Besides, the inhibition in vivo at 300 mg/kg in [18] was 61%. For the same compound, the Kd in [24] came out at 0.01 nM.

Consider `CCN(CCO)Cc1cc(Nc2nc(C)cn3c(-c4cn[nH]c4)cnc23)sn1`, for which the IC50 in [22] and in series [26] was over 500 nM in each case.

Take `Cc1cn2c(-c3cn[nH]c3)cnc2c(Nc2cc(C(NC(C)(C)C)c3ccccn3)ns2)n1` (single isomer, unassigned; (+)): the figures for the Activity in series [27], in series [32] and in series [44] were 10%, “Toxic” and 10%, respectively. Further, the half-life in series [28] was 2.6 h; in series [4], 1.8 h. In addition, the figures for the AUC(0-t) at 48 h in series [29] and in series [14] were 4 µM·h and 3.9 µM·h, respectively. The clearance in series [30] came out at 11 mL/min/kg; in [9], 7.4 mL/min/kg; in series [19], 50 mL/min/kg. The solubility (thermodynamic) in [31] was determined as 5300 µg/mL (≈ 11.5 mM). Further, the figures for the AUC(0-t) at 24 h in [5], in series [16] and in [47] were 23.5 µM·h, 2.2 µM·h and 33 µM·h, respectively. Also, the Vd worked out at 3.7 L/kg in series [6], 1.3 L/kg in [15] and 2.5 L/kg in series [43]. In addition, the fraction unbound was 0.028 in series [8] and 0.01 in series [23]. Also, the bioavailability in series [33] was 40%; in series [35], 8%. In addition, the IC50 in [34] was 380 nM; in series [11] it was over 20000 nM; in series [41], over 1000 nM; in series [20], 6000 nM. Moreover, the inhibition in vivo at 10 mg/kg in [36] worked out at 94%; in series [39], 79%. Further, the hepatocyte CLint in series [37] was determined as 5.1 µL/min/1e6 cells; in series [42] it was 11.8 µL/min/1e6 cells; in series [46], 27.6 µL/min/1e6 cells; in [48], 11.5 µL/min/1e6 cells. The Cmin in series [38] came out at 6 nM. This compound returned an AUC in series [40] of 41 µM·h. Besides, the inhibition in vivo at 25 mg/kg in series [45] worked out at 86%. Besides, in series [24], the Kd came out at 0.01 nM.
